The text below walks through data of patent publication US20250213575A1, “8-HETEROCYCLIC-3-(PHENYLSULFONYL)-[1,2,3]TRIAZOLO[1,5A]QUINAZOLIN-5(4H)-ONE DERIVATIVES AS ANTI-BACTERIALS” (priority 2022, published 2025).

Marks after values point to notes of the source that are not given here. Bounds are passed on as bounds.

This assay has as its target AgrA (Staphylococcus aureus, UniProt P0A0I7). Description: cell-based. Details: species or system S. aureus USA300 strain UAMS-1625. The note with it: for Ratio IC50 (in presence of HSA)/IC50 (in absence of HSA): 40 mg/mL HSA vs without HSA; for Ratio (cells marked *): calculated based on activity in presence of 50% of human serum.
Setting [1] is: LB medium supplemented with 40 mg/mL human serum albumin.
[2] abbreviates: IC50 at 40 mg/mL HSA, LB medium supplemented with 40 mg/mL human serum albumin.
Where [3] appears, read: IC50 without HSA, LB medium, without HSA.
[4] abbreviates: concentration inhibiting the expression of lacZ, in the absence of HSA or HS.
Where [5] appears, read: IC50 at 40 mg/mL HSA (cells marked *), marked *: activity in presence of 50% of human serum, not determined in 40 mg/mL HSA.

AgrA, sequence (P0A0I7 whole entry): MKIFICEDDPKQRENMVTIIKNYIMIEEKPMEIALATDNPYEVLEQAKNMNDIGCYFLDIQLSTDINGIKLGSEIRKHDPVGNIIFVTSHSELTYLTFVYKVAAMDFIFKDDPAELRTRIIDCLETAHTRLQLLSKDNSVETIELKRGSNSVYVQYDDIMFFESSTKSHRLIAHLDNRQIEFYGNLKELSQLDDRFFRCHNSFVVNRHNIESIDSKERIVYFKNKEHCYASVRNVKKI

In the case of “3-(2,4-dimethylbenzenesulfonyl)-8-(4-methanesulfonylpiperazin-1-yl)-4H,5H-[1,2,3]triazolo[1,5-a]quinazolin-5-one [Compound 61]”, the “Ratio IC50 (in presence of HSA)/IC50 (in absence of HSA)” value (“Ratio IC50 (in presence of HSA)/IC50” for short) is recorded as “++ (ratio ≤ 125)”. Besides, the IC50 (as a rule, the point on the concentration scale where inhibition reaches its midpoint) at 40 mg/mL HSA under setting [1] is recorded as “++ (10 μg/mL < IC50 ≤ 50 μg/mL)”. In addition, for the setting “LB medium, without HSA”, the “IC50 without HSA” value is “+++ (IC50 ≤ 1 μg/mL)”.

In the case of “3-(2,4-dimethylbenzenesulfonyl)-8-(piperazin-1-yl)-4H,5H-[1,2,3]triazolo[1,5-a]quinazolin-5-one [Compound 23]”, the “Ratio IC50 (in presence of HSA)/IC50” value is on record as “+++ (ratio ≤ 25)”. Further, the “IC50 at 40 mg/mL HSA” value under setting [1] was “++ (10 μg/mL < IC50 ≤ 50 μg/mL)”. The “IC50 without HSA” value (LB medium, without HSA) is reported as “+++ (IC50 ≤ 1 μg/mL)”.

On to “3-(2,4-dimethylbenzenesulfonyl)-8-{9-methyl-2,9-diazaspiro[5.5]undecan-2-yl}-1H,5H-[1,2,3]triazolo[1,5-a]quinazolin-5-one [Compound 5]”, for which the “Ratio IC50 (in presence of HSA)/IC50” value is listed as “+++ (ratio ≤ 25)”. Further, the “IC50 at 40 mg/mL HSA” value under setting [1] was “++ (10 μg/mL < IC50 ≤ 50 μg/mL)”. Moreover, under “LB medium, without HSA”, the “IC50 without HSA” value was “+++ (IC50 ≤ 1 μg/mL)”.

Turning to “4-[3-(2,4-dimethylbenzenesulfonyl)-5-oxo-4H,5H-[1,2,3]triazolo[1,5-a]quinazolin-8-yl]piperazine-1-sulfonamide [Compound 62]”, the “Ratio IC50 (in presence of HSA)/IC50” value is given as “++ (ratio ≤ 125)”. Besides, the “IC50 at 40 mg/mL HSA” value under setting [1] is on record as “++ (10 μg/mL < IC50 ≤ 50 μg/mL)”. Moreover, the “IC50 without HSA” value (LB medium, without HSA) is reported as “+++ (IC50 ≤ 1 μg/mL)”.

`Cc1ccc(S(=O)(=O)c2nnn3c2[nH]c(=O)c2ccc(N4C[C@H](C)NC[C@H]4C)cc23)c(C)c1` (racemic) [Compound 28, rac-3-(2,4-dimethylbenzenesulfonyl)-8-[(2R,5S)-2,5-dimethylpiperazin-1-yl]-4H,5H-[1,2,3]triazolo[1,5-a]quinazolin-5-one]: the “Ratio IC50 (in presence of HSA)/IC50” value is on record as “+++ (ratio ≤ 25)”. The IC50 under setting [2] is less than 21.4 µM. This compound returned an IC50 under setting [3] of less than 2.14 µM.

Turning to `Cc1ccc(S(=O)(=O)c2nnn3c2[nH]c(=O)c2ccc(N4CCC4)cc23)c(C)c1` [45 (WO 2020/109350), reference compound], the “Ratio IC50 (in presence of HSA)/IC50” value is given as “+ (ratio > 125)”. Under setting [2], this compound showed an IC50 of more than 122 µM. The same compound returned an IC50 under setting [3] of less than 2.44 µM. Also, the IC50 under setting [4] was less than 2.44 µM. Besides, under “in the presence of HSA (or HS)”, the “activity in the presence of HSA (or HS), inactive at highest concentration tested” value was more than 128 µg/mL.

On to `Cc1ccc(S(=O)(=O)c2nnn3c2[nH]c(=O)c2cc(O)ccc23)c(C)c1` [46 (WO 2020/109350), reference compound], for which the “Ratio (cells marked *)” value was “+* (ratio > 125)”. In addition, the IC50 under setting [5] was more than 135 µM. The same compound showed a concentration for half-maximal inhibition (IC50) under setting [3] of less than 2.7 µM. The IC50 under setting [4] is less than 2.7 µM.

Regarding `COCCOc1cc2c(cc1O)c(=O)[nH]c1c(S(=O)(=O)c3ccc(C)cc3C)nnn12` [58 (WO 2020/109350), reference compound], the “Ratio (cells marked *)” value is “+* (ratio > 125)”. The IC50 under setting [5] was more than 112 µM. Moreover, the IC50 under setting [3] was less than 2.25 µM. Besides, the half-inhibitory concentration (IC50) under setting [4] is less than 2.25 µM.

For `Cc1ccc(S(=O)(=O)c2nnn3c2[nH]c(=O)c2cc(O)c(N4CCN(C)CC4)cc23)c(C)c1` [Compound 1, 3-(2,4-dimethylbenzenesulfonyl)-7-hydroxy-8-(4-methylpiperazin-1-yl)-4H,5H-[1,2,3]triazolo[1,5-a]quinazolin-5-one], the “Ratio IC50 (in presence of HSA)/IC50” value was “+++ (ratio ≤ 25)”. This compound also came in with an IC50 under setting [2] of less than 21.3 µM. This compound also had an IC50 under setting [3] of less than 2.13 µM.

On to `Cc1ccc(S(=O)(=O)c2nnn3c2[nH]c(=O)c2cc(O)c(N4CC5(CN(C)C5)C4)cc23)c(C)c1` [Compound 2, 3-(2,4-dimethylbenzenesulfonyl)-7-hydroxy-8-{6-methyl-2,6-diazaspiro[3.3]heptan-2-yl}-4H,5H-[1,2,3]triazolo[1,5-a]quinazolin-5-one], for which the “Ratio IC50 (in presence of HSA)/IC50” value was “+++ (ratio ≤ 25)”. The same compound registered a 50% inhibitory concentration (IC50) under setting [2] of less than 20.8 µM. Further, the IC50 under setting [3] is less than 2.08 µM.

On to `Cc1ccc(S(=O)(=O)c2n[nH]n3c2nc(=O)c2ccc(N4CCC5(CCN(C)CC5)C4)cc23)c(C)c1` [Compound 3, 3-(2,4-dimethylbenzenesulfonyl)-8-{8-methyl-2,8-diazaspiro[4.5]decan-2-yl}-1H,5H-[1,2,3]triazolo[1,5-a]quinazolin-5-one], for which the “Ratio IC50 (in presence of HSA)/IC50” value was “+++ (ratio ≤ 25)”. Further, under setting [2], the half-inhibitory concentration (IC50) was less than 19.7 µM. Further, the IC50 under setting [3] is less than 1.97 µM.

`Cc1ccc(S(=O)(=O)c2n[nH]n3c2nc(=O)c2ccc(N4CCC5(CCCN(C)C5)CC4)cc23)c(C)c1` [Compound 4, 3-(2,4-dimethylbenzenesulfonyl)-8-{2-methyl-2,9-diazaspiro[5.5]undecan-9-yl}-1H,5H-[1,2,3]triazolo[1,5-a]quinazolin-5-one]: the “Ratio IC50 (in presence of HSA)/IC50” value was “+++ (ratio ≤ 25)”. Moreover, under setting [2], the IC50 was 19.2 to 96 µM. The IC50 under setting [3] lay in the range of 1.92 to 9.6 µM.

On to `Cc1ccc(S(=O)(=O)c2n[nH]n3c2nc(=O)c2ccc(N4CCC5(CCN(C)CC5)CC4)cc23)c(C)c1` [Compound 6, 3-(2,4-dimethylbenzenesulfonyl)-8-{9-methyl-3,9-diazaspiro[5.5]undecan-3-yl}-1H,5H-[1,2,3]triazolo[1,5-a]quinazolin-5-one], for which the “Ratio IC50 (in presence of HSA)/IC50” value is on record as “+++ (ratio ≤ 25)”. In addition, the IC50 under setting [2] was 19.2 to 96 µM. The compound further had an IC50 under setting [3] of 1.92 to 9.6 µM.

As to `Cc1ccc(S(=O)(=O)c2nnn3c2[nH]c(=O)c2ccc(N4CCC5(CNCCO5)C4)cc23)c(C)c1` (stereo not shown) [Compound 7, 3-(2,4-dimethylbenzenesulfonyl)-8-{6-oxa-2,9-diazaspiro[4.5]decan-2-yl}-4H,5H-[1,2,3]triazolo[1,5-a]quinazolin-5-one], the “Ratio IC50 (in presence of HSA)/IC50” value is on record as “+++ (ratio ≤ 25)”. This compound had a half-inhibitory concentration (IC50) under setting [2] of less than 20.2 µM. Besides, the concentration for half-maximal inhibition (IC50) under setting [3] is less than 2.02 µM.

Consider `Cc1ccc(S(=O)(=O)c2nnn3c2[nH]c(=O)c2ccc(N4CCC5(CN(C)CCO5)C4)cc23)c(C)c1` (stereo not shown) [Compound 8, 3-(2,4-dimethylbenzenesulfonyl)-8-{9-methyl-6-oxa-2,9-diazaspiro[4.5]decan-2-yl}-4H,5H-[1,2,3]triazolo[1,5-a]quinazolin-5-one], for which the “Ratio IC50 (in presence of HSA)/IC50” value was “+++ (ratio ≤ 25)”. This compound displayed an IC50 under setting [2] of 19.7 to 98.3 µM. Under setting [3], this compound displayed a half-maximal inhibitory concentration (IC50) of less than 1.97 µM.

As to `Cc1ccc(S(=O)(=O)c2nnn3c2[nH]c(=O)c2ccc(N4CCOC5(CNC5)C4)cc23)c(C)c1` [Compound 9, 3-(2,4-dimethylbenzenesulfonyl)-8-{5-oxa-2,8-diazaspiro[3.5]nonan-8-yl}-4H,5H-[1,2,3]triazolo[1,5-a]quinazolin-5-one], the “Ratio IC50 (in presence of HSA)/IC50” value is “+++ (ratio ≤ 25)”. Under setting [2], this compound returned an IC50 of 20.8 to 104 µM. For the same compound, the IC50 under setting [3] was in the range of 2.08 to 10.4 µM.

In the case of `Cc1ccc(S(=O)(=O)c2nnn3c2[nH]c(=O)c2ccc(N4CCOC5(CN(C)C5)C4)cc23)c(C)c1` [Compound 10, 3-(2,4-dimethylbenzenesulfonyl)-8-{2-methyl-5-oxa-2,8-diazaspiro[3.5]nonan-8-yl}-4H,5H-[1,2,3]triazolo[1,5-a]quinazolin-5-one], the “Ratio IC50 (in presence of HSA)/IC50” value is recorded as “+++ (ratio ≤ 25)”. The half-maximal inhibitory concentration (IC50) under setting [2] was 20.2 to 101 µM. Further, the IC50 under setting [3] lay within 2.02 to 10.1 µM.

As to `Cc1ccc(S(=O)(=O)c2nnn3c2[nH]c(=O)c2ccc(N4CCC45CN(C)C5)cc23)c(C)c1` [Compound 11, 3-(2,4-dimethylbenzenesulfonyl)-8-{6-methyl-1,6-diazaspiro[3.3]heptan-1-yl}-4H,5H-[1,2,3]triazolo[1,5-a]quinazolin-5-one], the “Ratio IC50 (in presence of HSA)/IC50” value was “+++ (ratio ≤ 25)”. In addition, the half-maximal inhibitory concentration (IC50) under setting [2] lay within 21.5 to 108 µM. The IC50 under setting [3] is 2.15 to 10.8 µM.

Consider `Cc1ccc(S(=O)(=O)c2nnn3c2[nH]c(=O)c2ccc(N4CC5(CCN5C)C4)cc23)c(C)c1` [Compound 12, 3-(2,4-dimethylbenzenesulfonyl)-8-{1-methyl-1,6-diazaspiro[3.3]heptan-6-yl}-4H,5H-[1,2,3]triazolo[1,5-a]quinazolin-5-one], for which the “Ratio IC50 (in presence of HSA)/IC50” value is reported as “+++ (ratio ≤ 25)”. In addition, under setting [2], the IC50 was 21.5 to 108 µM. Under setting [3], this compound had a half-inhibitory concentration (IC50) of less than 2.15 µM.

Turning to `Cc1ccc(S(=O)(=O)c2nnn3c2[nH]c(=O)c2ccc(N4CC5(COC5)C4)cc23)c(C)c1` [Compound 13, 3-(2,4-dimethylbenzenesulfonyl)-8-{2-oxa-6-azaspiro[3.3]heptan-6-yl}-4H,5H-[1,2,3]triazolo[1,5-a]quinazolin-5-one], the “Ratio IC50 (in presence of HSA)/IC50” value is “++ (ratio ≤ 125)”. The compound also returned an IC50 under setting [2] of 22.1 to 111 µM. Further, the IC50 under setting [3] is less than 2.21 µM.

As to `Cc1ccc(S(=O)(=O)c2nnn3c2[nH]c(=O)c2ccc(N4CC5(CN(C)C5)C4)cc23)c(C)c1` [Compound 14, 3-(2,4-dimethylbenzenesulfonyl)-8-{6-methyl-2,6-diazaspiro[3.3]heptan-2-yl}-4H,5H-[1,2,3]triazolo[1,5-a]quinazolin-5-one], the “Ratio IC50 (in presence of HSA)/IC50” value is reported as “+++ (ratio ≤ 25)”. The half-maximal inhibitory concentration (IC50) under setting [2] was 21.5 to 108 µM. This compound also showed an IC50 under setting [3] of 2.15 to 10.8 µM.

Take `Cc1ccc(S(=O)(=O)c2n[nH]n3c2nc(=O)c2ccc(N4CCC5(CC4)CNCCO5)cc23)c(C)c1` [Compound 15, 3-(2,4-dimethylbenzenesulfonyl)-8-{1-oxa-4,9-diazaspiro[5.5]undecan-9-yl}-1H,5H-[1,2,3]triazolo[1,5-a]quinazolin-5-one]: the “Ratio IC50 (in presence of HSA)/IC50” value is “+++ (ratio ≤ 25)”. Under setting [2], the IC50 fell in the range of 19.7 to 98.3 µM. In addition, the IC50 under setting [3] is less than 1.97 µM.
